Among the data in PMC7305236, “The atypical chemokine receptor ACKR3/CXCR7 is a broad-spectrum scavenger for opioid peptides” (Nature Communications, 2020) are activation values, retold here.

Like-named read-outs stand apart in the source and are kept apart here. Starred links: 1 amine or outer side, 2 acyl side, 3 side chain; linkers in the order of their positions; H or OH if unused. Non-standard residues stand in square brackets, D forms with d. Residues, ends and D or L forms follow the SMILES beside them. X1 = N[C@@H](Cc1ccccc1)CN(CC(=O)[*:2])[*:1]

Holding throughout (parameters): dose or concentration left out as unconfirmed
One test deals with T1, CXCR5 (Homo sapiens, UniProt P32302).
T1 construct: expressed in transfected cells
T1 sequence (P32302 1-372): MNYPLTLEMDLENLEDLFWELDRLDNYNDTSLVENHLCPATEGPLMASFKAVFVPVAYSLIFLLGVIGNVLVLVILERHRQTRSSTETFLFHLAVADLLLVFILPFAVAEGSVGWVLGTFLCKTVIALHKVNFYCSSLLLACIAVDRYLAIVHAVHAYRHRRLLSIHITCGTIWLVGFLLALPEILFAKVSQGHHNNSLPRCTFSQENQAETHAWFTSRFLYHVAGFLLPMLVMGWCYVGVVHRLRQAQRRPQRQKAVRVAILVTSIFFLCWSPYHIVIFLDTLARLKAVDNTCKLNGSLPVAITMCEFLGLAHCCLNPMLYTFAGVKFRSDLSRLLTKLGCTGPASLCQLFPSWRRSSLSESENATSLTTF
Put plainly: Figure S2a opioid peptide screen on chemokine receptors. The format is cell-based.

The target in another test is T2, CCR2 (Homo sapiens, UniProt P41597).
T2 construct: expressed in transfected cells
T2 sequence (P41597 1-360 isoform P41597-2): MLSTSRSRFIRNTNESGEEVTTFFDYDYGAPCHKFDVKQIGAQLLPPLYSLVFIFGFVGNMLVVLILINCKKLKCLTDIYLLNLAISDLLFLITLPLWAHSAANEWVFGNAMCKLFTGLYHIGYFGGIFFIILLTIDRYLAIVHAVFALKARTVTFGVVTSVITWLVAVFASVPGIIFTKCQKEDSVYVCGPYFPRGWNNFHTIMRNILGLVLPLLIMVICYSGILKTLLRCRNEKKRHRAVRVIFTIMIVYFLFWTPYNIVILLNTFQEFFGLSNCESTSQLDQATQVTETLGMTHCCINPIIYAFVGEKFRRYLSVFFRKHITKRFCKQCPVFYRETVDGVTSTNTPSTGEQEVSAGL
Described as above. The format is cell-based.

The target in the next test is T3, CXCR4 (Homo sapiens, UniProt P61073).
T3 construct: expressed in transfected cells; host or cells: U87, transient cotransfection of pNBe vectors
Put plainly: cell-based.

For another test, the target named is T4, CCR6 (Homo sapiens, UniProt P51684).
T4 construct: expressed in transfected cells
T4 sequence (P51684 1-374): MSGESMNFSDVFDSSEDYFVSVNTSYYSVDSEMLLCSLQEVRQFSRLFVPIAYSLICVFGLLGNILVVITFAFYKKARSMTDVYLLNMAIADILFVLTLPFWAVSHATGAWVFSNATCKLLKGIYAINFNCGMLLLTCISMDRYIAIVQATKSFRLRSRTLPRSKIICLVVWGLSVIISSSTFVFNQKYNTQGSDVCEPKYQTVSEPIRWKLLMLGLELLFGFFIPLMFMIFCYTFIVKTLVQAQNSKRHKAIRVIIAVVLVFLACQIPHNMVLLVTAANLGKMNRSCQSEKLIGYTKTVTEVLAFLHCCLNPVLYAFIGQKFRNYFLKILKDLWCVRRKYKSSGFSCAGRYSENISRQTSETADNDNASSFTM
Put plainly: Figure S2a opioid peptide screen on chemokine receptors. The format is cell-based.

The target in a further test is T5, CCR4 (Homo sapiens, UniProt P51679).
T5 construct: expressed in transfected cells
T5 sequence (P51679 1-360): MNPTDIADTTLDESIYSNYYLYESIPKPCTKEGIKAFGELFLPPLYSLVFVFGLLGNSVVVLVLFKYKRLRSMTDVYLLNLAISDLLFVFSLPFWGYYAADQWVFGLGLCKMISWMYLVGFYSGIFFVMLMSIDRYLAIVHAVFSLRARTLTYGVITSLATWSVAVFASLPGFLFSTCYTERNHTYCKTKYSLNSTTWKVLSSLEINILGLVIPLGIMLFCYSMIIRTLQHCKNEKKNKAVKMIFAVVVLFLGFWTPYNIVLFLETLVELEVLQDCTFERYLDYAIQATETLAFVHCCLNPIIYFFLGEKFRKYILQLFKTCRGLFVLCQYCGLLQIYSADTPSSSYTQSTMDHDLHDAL
The description is as above. The format is cell-based.

Setting [1] is: replicate 1, read-out: CXCR5 activity, ctrl+ = 100.
Where [2] appears, read: replicate 2, read-out: CXCR5 activity, ctrl+ = 100.
The mark [3] stands for this setting: replicate 3, read-out: CXCR5 activity, ctrl+ = 100.
The mark [4] stands for this setting: replicate 1, read-out: CCR2 activity, ctrl+ = 100.
The mark [5] stands for this setting: replicate 2, read-out: CCR2 activity, ctrl+ = 100.
Setting [6] is: replicate 3, read-out: CCR2 activity, ctrl+ = 100.
Where [7] appears, read: Figure S2a, replicate 1, read-out: CXCR4 activity, ctrl+ = 100.
The mark [8] stands for this setting: Figure S2a, replicate 2, read-out: CXCR4 activity, ctrl+ = 100.
The mark [9] stands for this setting: Figure S2a, replicate 3, read-out: CXCR4 activity, ctrl+ = 100.
Setting [10] is: replicate 1, read-out: CCR6 activity, ctrl+ = 100.
The mark [11] stands for this setting: replicate 2, read-out: CCR6 activity, ctrl+ = 100.
Where [12] appears, read: replicate 3, read-out: CCR6 activity, ctrl+ = 100.
Setting [13] is: replicate 1, read-out: CCR4 activity, ctrl+ = 100.
[14] abbreviates: replicate 2, read-out: CCR4 activity, ctrl+ = 100.
Setting [15] is: replicate 3, read-out: CCR4 activity, ctrl+ = 100.

T3 sequence (P61073 whole entry): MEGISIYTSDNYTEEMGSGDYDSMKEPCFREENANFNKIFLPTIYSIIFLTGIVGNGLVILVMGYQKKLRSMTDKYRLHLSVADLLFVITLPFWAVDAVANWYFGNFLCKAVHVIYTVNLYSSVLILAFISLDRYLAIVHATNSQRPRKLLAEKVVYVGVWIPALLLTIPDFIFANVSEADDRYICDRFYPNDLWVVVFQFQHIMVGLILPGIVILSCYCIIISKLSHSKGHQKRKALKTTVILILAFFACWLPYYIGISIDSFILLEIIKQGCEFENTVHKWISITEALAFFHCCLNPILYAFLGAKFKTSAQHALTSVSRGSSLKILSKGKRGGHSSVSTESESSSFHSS

Regarding `CSCC[C@H](NC(=O)[C@H](Cc1ccccc1)NC(=O)CNC(=O)CNC(=O)[C@@H](N)Cc1ccc(O)cc1)C(=O)N[C@@H](CCCNC(=N)N)C(=O)N[C@@H](CCCNC(=N)N)C(=O)N[C@H](C(N)=O)C(C)C` [Adrenorphin], the activation on CXCR5 (setting [1]) is -2.55%; on CXCR5 (setting [2]), -4.15%; at CXCR5 (setting [3]) it was 2.83%; on CCR2 (setting [4]), -0.901%; at CCR2 (setting [5]), -1.07%; at CCR2 (setting [6]), -1.1%. Also, the activation on CXCR4 (setting [7]) was -0.233%; on CXCR4 (setting [8]), 14%; at CXCR4 (setting [9]) it was 3.91%; at CCR6 (setting [10]) it was -3.87%; at CCR6 (setting [11]), 1.08%; on CCR6 (setting [12]), -1.64%. The figures for the activation at CCR4 (setting [13]), at CCR4 (setting [14]) and at CCR4 (setting [15]) were -4.72%, -4.07% and 2.73%, respectively.
In the case of `CSCC[C@H](NC(=O)[C@H](Cc1ccccc1)NC(=O)CNC(=O)CNC(=O)[C@@H](N)Cc1ccc(O)cc1)C(=O)N[C@@H](CCCNC(=N)N)C(=O)N[C@@H](CCCNC(=N)N)C(=O)N[C@H](C(=O)NCC(=O)N[C@@H](CCCNC(=N)N)C(=O)N1CCC[C@H]1C(=O)N[C@@H](CCC(=O)O)C(=O)N[C@@H](Cc1c[nH]c2ccccc12)C(=O)N[C@@H](Cc1c[nH]c2ccccc12)C(=O)N[C@@H](CCSC)C(=O)N[C@@H](CC(=O)O)C(=O)N[C@@H](Cc1ccc(O)cc1)C(=O)N[C@@H](CCC(N)=O)C(=O)N[C@@H](CCCCN)C(=O)N[C@@H](CCCNC(=N)N)C(=O)N[C@@H](Cc1ccc(O)cc1)C(=O)NCC(=O)O)C(C)C` [BAM22], the activation on CXCR5 (setting [1]) is -1.51%; on CXCR5 (setting [2]), -4.48%; at CXCR5 (setting [3]), -1.8%; on CCR2 (setting [4]), -0.243%; at CCR2 (setting [5]) it was -1.08%; on CCR2 (setting [6]), 1.22%. For the same molecule, the activation at CXCR4 (read-out: CXCR4 activity, ctrl+ = 100, Figure S2a, replicate 1) is 22.9%; on CXCR4 (read-out: CXCR4 activity, ctrl+ = 100, Figure S2a, replicate 2), 27.7%; at CXCR4 (read-out: CXCR4 activity, ctrl+ = 100, Figure S2a, replicate 3), -6.34%; on CCR6 (setting [10]), -2.07%; at CCR6 (setting [11]) it was -2.99%; at CCR6 (setting [12]), -1.86%. Moreover, the activation is -0.405% on CCR4 (setting [13]), -3.44% at CCR4 (setting [14]) and 3.02% at CCR4 (setting [15]).
Turning to `CC[C@H](C)[C@H](NC(=O)[C@H](CCCNC(=N)N)NC(=O)[C@H](CCCNC(=N)N)NC(=O)[C@H](CC(C)C)NC(=O)[C@H](Cc1ccccc1)NC(=O)CNC(=O)CNC(=O)[C@@H](N)Cc1ccc(O)cc1)C(=O)N[C@@H](CCCNC(=N)N)C(=O)N1CCC[C@H]1C(=O)N[C@@H](CCCCN)C(=O)N[C@@H](CC(C)C)C(=O)N[C@@H](CCCCN)C(=O)O` [Dynorphin 1-13], the activation is -0.575% at CXCR5 (setting [1]); -5.55% at CXCR5 (setting [2]); -0.833% on CCR2 (setting [4]); -2.52% on CCR2 (setting [5]); 13.2% on CXCR4 (setting [7]); -40.8% on CXCR4 (setting [8]). Besides, the activation is -0.31% on CCR6 (setting [10]), -0.732% on CCR6 (setting [11]), 0.25% at CCR4 (setting [13]) and -3.89% at CCR4 (setting [14]).
For `CC[C@H](C)[C@H](NC(=O)[C@H](CCCNC(=N)N)NC(=O)[C@H](CCCNC(=N)N)NC(=O)[C@H](CC(C)C)NC(=O)[C@H](Cc1ccccc1)NC(=O)CNC(=O)CN)C(=O)N[C@@H](CCCNC(=N)N)C(=O)N1CCC[C@H]1C(=O)N[C@@H](CCCCN)C(=O)N[C@@H](CC(C)C)C(=O)N[C@@H](CCCCN)C(=O)N[C@@H](Cc1c[nH]c2ccccc12)C(=O)N[C@@H](CC(=O)O)C(=O)N[C@@H](CC(N)=O)C(=O)N[C@@H](CCC(N)=O)C(=O)O` [Dynorphin 2-17], the activation at CXCR5 (setting [1]) is -2.49%; at CXCR5 (setting [2]) it was -3.33%; on CCR2 (setting [4]), 0.747%; on CCR2 (setting [5]), -1.44%; at CXCR4 (setting [7]) it was -9.77%; on CXCR4 (setting [8]), -26.7%. The activation on CCR6 (setting [10]) is -0.438%; at CCR6 (setting [11]), -1.06%; on CCR4 (setting [13]), -4.06%; at CCR4 (setting [14]) it was -1.12%.
On to `CC[C@H](C)[C@H](NC(=O)[C@H](CCCNC(=N)N)NC(=O)[C@H](CCCNC(=N)N)NC(=O)[C@H](CC(C)C)NC(=O)[C@H](Cc1ccccc1)NC(=O)CNC(=O)CNC(=O)[C@@H](N)Cc1ccc(O)cc1)C(=O)N[C@@H](CCCNC(=N)N)C(=O)N1CCC[C@H]1C(=O)N[C@@H](CCCCN)C(=O)N[C@@H](CC(C)C)C(=O)N[C@@H](CCCCN)C(=O)N[C@@H](Cc1c[nH]c2ccccc12)C(=O)N[C@@H](CC(=O)O)C(=O)N[C@@H](CC(N)=O)C(=O)N[C@@H](CCC(N)=O)C(=O)O` [Dynorphin A], for which the activation is -1.81% on CXCR5 (setting [1]); -4.52% on CXCR5 (setting [2]); 9.35% on CXCR5 (setting [3]); -0.0585% at CCR2 (setting [4]); -2.61% at CCR2 (setting [5]); -0.105% on CCR2 (setting [6]). Further, the activation on CXCR4 (setting [7]) was -6.67%; on CXCR4 (setting [8]) it was -56.8%; at CXCR4 (setting [9]), 36.5%; on CCR6 (setting [10]) it was -2.27%; at CCR6 (setting [11]), -1.32%; on CCR6 (setting [12]) it was -4.07%. Also, the activation on CCR4 (setting [13]) is -3.55%; on CCR4 (setting [14]), 0.0408%; at CCR4 (setting [15]) it was 5%.
As to `NC(=O)[C@H](Cc1ccccc1)NC(=O)[C@H](Cc1c[nH]c2ccccc12)NC(=O)[C@@H]1CCCN1C(=O)[C@@H](N)Cc1ccc(O)cc1` [Endomorphin-1], the activation on CXCR5 (setting [1]) was 1.35%; at CXCR5 (setting [2]) it was -1.48%; at CCR2 (setting [4]), 0.794%; on CCR2 (setting [5]) it was -3.22%; on CXCR4 (setting [7]), 36.3%; at CXCR4 (setting [8]) it was 16.8%. For the same molecule, the activation at CCR6 (setting [10]) is 0.653%; at CCR6 (setting [11]), 2.69%; on CCR4 (setting [13]), 0.589%; at CCR4 (setting [14]), -1.89%.
In the case of `C[C@H](NC(=O)CNC(=O)[C@@H](NC(=O)[C@H](Cc1ccccc1)NC(=O)CNC(=O)CNC[C@@H](N)Cc1ccccc1)[C@@H](C)O)C(=O)N[C@@H](CCCNC(=N)N)C(=O)N[C@@H](CCCCN)C(=O)N[C@@H](CO)C(=O)N[C@@H](C)C(=O)N[C@@H](CCCNC(=N)N)C(=O)N[C@@H](CCCCN)C(N)=O` [FG Nociceptin 1-13] (H-[X1]GFTGARKSARK-NH2), the activation is -5.41% at CXCR5 (setting [1]); -2.11% at CXCR5 (setting [2]); -0.496% on CXCR5 (setting [3]); -0.148% at CCR2 (setting [4]); -0.651% on CCR2 (setting [5]); 0.99% on CCR2 (setting [6]). The activation on CXCR4 (setting [7]) is 1.4%; on CXCR4 (setting [8]) it was -4.91%; on CXCR4 (setting [9]), 27.5%; at CCR6 (setting [10]) it was 0.145%; on CCR6 (setting [11]), -0.683%; at CCR6 (setting [12]), 5.07%. Further, the activation is -0.803% at CCR4 (setting [13]), -1.43% at CCR4 (setting [14]) and -2.08% on CCR4 (setting [15]).
